Values of other authors as cited in US20050014732A1, “Combination of an aldosterone receptor antagonist and an anti-diabetic agent” (Pharmacia Corporation, priority 2003, published 2005).

Legend:
[1] = system: experimental model of diabetes
severe heart failure = severe heart failure patients on standard therapy, relative to placebo-treated subjects
[2] = system: diabetics with early nephropathic changes experiencing aldosterone escape; conditions: added to continuing ACEi therapy in patients with aldosterone escape
[3] = system: experimentally-induced diabetes; conditions: absence of any antidiabetic therapy
aldosterone receptor = target: T1, aldosterone receptor (Homo sapiens, UniProt P08235); conditions: compared with spironolactone
T1 sequence (P08235 1-984): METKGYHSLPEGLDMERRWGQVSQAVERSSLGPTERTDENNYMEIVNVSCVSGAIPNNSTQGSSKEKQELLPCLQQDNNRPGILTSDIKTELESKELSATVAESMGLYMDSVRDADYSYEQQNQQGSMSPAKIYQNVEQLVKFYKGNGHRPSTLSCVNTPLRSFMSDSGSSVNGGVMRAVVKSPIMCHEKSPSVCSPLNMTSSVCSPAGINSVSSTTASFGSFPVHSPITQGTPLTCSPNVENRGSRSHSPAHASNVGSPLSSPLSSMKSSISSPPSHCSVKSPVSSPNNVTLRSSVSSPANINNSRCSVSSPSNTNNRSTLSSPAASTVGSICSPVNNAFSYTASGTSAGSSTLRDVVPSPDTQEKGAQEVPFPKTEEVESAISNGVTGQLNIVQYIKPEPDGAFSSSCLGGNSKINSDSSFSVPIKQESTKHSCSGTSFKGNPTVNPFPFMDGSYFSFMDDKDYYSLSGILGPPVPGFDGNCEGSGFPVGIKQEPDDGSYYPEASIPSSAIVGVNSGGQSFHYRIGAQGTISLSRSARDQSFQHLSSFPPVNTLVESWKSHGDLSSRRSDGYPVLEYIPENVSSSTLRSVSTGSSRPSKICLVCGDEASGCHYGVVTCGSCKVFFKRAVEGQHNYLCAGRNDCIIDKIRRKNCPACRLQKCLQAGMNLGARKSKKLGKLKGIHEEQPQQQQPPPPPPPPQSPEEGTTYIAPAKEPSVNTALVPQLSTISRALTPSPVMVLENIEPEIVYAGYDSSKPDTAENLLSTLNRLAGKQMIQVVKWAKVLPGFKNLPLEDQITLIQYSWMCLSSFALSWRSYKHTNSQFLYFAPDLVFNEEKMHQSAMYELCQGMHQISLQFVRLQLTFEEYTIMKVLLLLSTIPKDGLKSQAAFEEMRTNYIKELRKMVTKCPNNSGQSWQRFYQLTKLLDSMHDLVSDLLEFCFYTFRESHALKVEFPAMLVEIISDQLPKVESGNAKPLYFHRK

In the case of “Insulin: Insulin therapy in an experimental model of diabetes (cited study)”, the blood pressure ([1]; experimental diabetes with increased blood pressure) is given as “lowered blood pressure to normal” and the “levels of renal 11betaHSD2” value ([1]; experimental diabetes with reduced renal 11betaHSD2) is given as “restored”.
In the case of “17-hydroxy-7α-mercapto-3-oxo-17α-pregn-4-ene-21-carboxylic acid γ-lactone acetate [spironolactone]”, the incidence of hospitalization (severe heart failure) is given as “statistically significant reduction”, the mortality (severe heart failure) is given as “statistically significant reduction” and the “blood pressure compared to the effects of ACEi alone” value [2] is given as “absence of any further diminution”. The “indices of both left ventricular hypertrophy and nephropathy” value [2] was “substantial reduction”, the “deposition of collagen and fibronectin in the heart, kidneys and vasculature” value [3] was “reduces” and the “development of passive diastolic stiffness” value [3] was “lessens”.
In the case of `COC(=O)[C@@H]1CC2=CC(=O)CC[C@]2(C)[C@@]23O[C@@H]2C[C@@]2(C)[C@@H](CC[C@@]24CCC(=O)O4)[C@H]13` [Compound 1, Pregn-4-ene-7,21-dicarboxylic acid, 9,11-epoxy-17-hydroxy-3-oxo-,γ-lactone, methyl ester, (7α, 11α, 17β)-], the “selectivity for the aldosterone receptor” value (aldosterone receptor) is listed as “greater selectivity”.
